Test results reported in article PMC12373499 (Nature Metabolism, 2025).
Where a SMILES comes first, the peptide text is derived from it. [ ]: non-standard residue; d: D form. The star is where a group is joined. X1 = CN1C(=CC=CC=CC2=[N+](CCCCCC(=O)NCCN3C(=O)CC(*)C3=O)c3ccccc3C2(C)C)C(C)(C)c2ccccc21; Aib = CC(C)(N)C(=O)O

Key:
[1] = test system: MIN6-CB4 β cells; experiment: MIN6-CB4 cell fluorescent probe labelling, colocalization; assay type: cell-based
Method: MIN6-CB4 cells were generated and phenotyped, as previously described. Cells were grown to 70% confluency in MIN6 media (DMEM High Glucose supplemented with 15% FBS, 71 μM 2-mercaptoethanol, 2 mM glutamine, 100 units ml^−1 penicillin, 100 μg ml^−1 streptomycin). Cells were then seeded in 100 μl MIN6 media per well, on a glass-bottomed 96-well imaging plate previously coated with poly-L-lysine 0.01%.
(§1) Probe labelling was analysed using corrected total cell fluorescence, which is integrated density − (area of selected cell × mean fluorescence of background readings)[52],[53]. Colocalization was determined using Manders’ coefficient, which calculates the proportion of pixels in one channel that also show intensity from both channels. Full width at half maximum was used to analyse labelling patterns at the membrane versus cytoplasm. All analyses were performed in ImageJ (NIH), with brightness and contrast linearly adjusted across the entire image for presentation purposes and applied equally between all states under examination.

[2] = test system: SC-islets; experiment: Labelling of iPS cell-derived islet-like structures (SC-islets); assay type: cell-based, human; settings: n = 12 SC-islets from two differentiations
Method: For immunostaining, labelled islets were washed three times with PBS, then incubated with 2–4% formalin for 15 min at room temperature (16–25 °C). Islets were again washed three times with PBS, then incubated in permeabilizing blocking buffer for 1 h at room temperature before incubation with primary antibody overnight at 4 °C. The following day, islets were incubated with secondary antibody for 2 h at room temperature before mounting onto microscope slides with […] HardSet with DAPI or Everbrite Hardset. Primary and secondary antibodies are listed in Supplementary Table 5.
Human iPS cells (ALSTEM, iPS11) were maintained on iPS cell-qualified Matrigel (Corning, 354277) in mTeSR+ media (StemCell Technologies, 05826). ALSTEM iPS11 cells were authenticated at source by testing for expression of OCT4 and TRA-1-60, as well as alkaline phosphatase activity. Differentiation to islet-like structures (SC-islets) was carried out in a suspension-based, magnetic CELLSPIN bioreactor system ([…]). Differentiation media was changed daily by letting spheres settle by gravity for 3–10 min. Most of the supernatant was removed by aspiration; fresh media was added and bioreactors were placed back on the stirrer system. SC-islet differentiation was based on published protocols[35],[49]
as §1

[3] = daLUXendin660 (tirz Cy5 500nM) vs LUXendin551 (100nM), image 2022.05.06 1-1
[4] = daLUXendin660 (tirz Cy5 500nM) vs LUXendin551 (100nM), image 2022.05.06 1-2
[5] = daLUXendin660 (tirz Cy5 500nM) vs LUXendin551 (100nM), image 2022.05.06 1-3
[6] = daLUXendin660 (tirz Cy5 500nM) vs LUXendin551 (100nM), image 2022.05.06 1-4
[7] = daLUXendin660 (tirz Cy5 500nM) vs LUXendin551 (100nM), image 2022.05.06 2-1
[8] = daLUXendin660 (tirz Cy5 500nM) vs LUXendin551 (100nM), image 2022.05.06 2-2
[9] = daLUXendin660 (tirz Cy5 500nM) vs LUXendin551 (100nM), image 2022.05.06 2-3
[10] = daLUXendin660 (tirz Cy5 500nM) vs LUXendin551 (100nM), image 2022.05.06 2-4
[11] = daLUXendin660 (tirz Cy5 500nM) vs LUXendin551 (100nM), image 2022.05.12 1-1
[12] = daLUXendin660 (tirz Cy5 500nM) vs LUXendin551 (100nM), image 2022.05.12 1-2
[13] = daLUXendin660 (tirz Cy5 500nM) vs LUXendin551 (100nM), image 2022.05.12 1-3
[14] = daLUXendin660 (tirz Cy5 500nM) vs LUXendin551 (100nM), image 2022.05.12 1-4
[15] = daLUXendin660 (tirz Cy5 500nM) vs LUXendin551 (100nM), image 2022.05.12 2-1
[16] = daLUXendin660 (tirz Cy5 500nM) vs LUXendin551 (100nM), image 2022.05.12 2-2
[17] = daLUXendin660 (tirz Cy5 500nM) vs LUXendin551 (100nM), image 2022.05.12 2-3
[18] = daLUXendin660 (tirz Cy5 500nM) vs LUXendin551 (100nM), image 2022.05.12 2-4
[19] = daLUXendin660 (tirz Cy5 500nM) vs sGIP549 (JB2228 100nM), image 2022.05.06 1-1
[20] = daLUXendin660 (tirz Cy5 500nM) vs sGIP549 (JB2228 100nM), image 2022.05.06 1-2
[21] = daLUXendin660 (tirz Cy5 500nM) vs sGIP549 (JB2228 100nM), image 2022.05.06 1-3
[22] = daLUXendin660 (tirz Cy5 500nM) vs sGIP549 (JB2228 100nM), image 2022.05.06 1-4
[23] = daLUXendin660 (tirz Cy5 500nM) vs sGIP549 (JB2228 100nM), image 2022.05.06 2-1
[24] = daLUXendin660 (tirz Cy5 500nM) vs sGIP549 (JB2228 100nM), image 2022.05.06 2-2
[25] = daLUXendin660 (tirz Cy5 500nM) vs sGIP549 (JB2228 100nM), image 2022.05.06 2-3
[26] = daLUXendin660 (tirz Cy5 500nM) vs sGIP549 (JB2228 100nM), image 2022.05.06 2-4
[27] = daLUXendin660 (tirz cy5 500nM) vs sGIP549 (JB2228 100nM), image 2022.05.12 1-1
[28] = daLUXendin660 (tirz cy5 500nM) vs sGIP549 (JB2228 100nM), image 2022.05.12 1-2
[29] = daLUXendin660 (tirz cy5 500nM) vs sGIP549 (JB2228 100nM), image 2022.05.12 1-3
[30] = daLUXendin660 (tirz cy5 500nM) vs sGIP549 (JB2228 100nM), image 2022.05.12 1-4
[31] = daLUXendin660 (tirz cy5 500nM) vs sGIP549 (JB2228 100nM), image 2022.05.12 2-1
[32] = daLUXendin660 (tirz cy5 500nM) vs sGIP549 (JB2228 100nM), image 2022.05.12 2-2
[33] = daLUXendin660 (tirz cy5 500nM) vs sGIP549 (JB2228 100nM), image 2022.05.12 2-3
[34] = daLUXendin660 (tirz cy5 500nM) vs sGIP549 (JB2228 100nM), image 2022.05.12 2-4

CC[C@H](C)[C@H](NC(=O)[C@H](CC(C)C)NC(=O)[C@H](Cc1c[nH]c2ccccc12)NC(=O)[C@H](CCC(N)=O)NC(=O)[C@@H](NC(=O)[C@H](Cc1ccccc1)NC(=O)[C@H](C)NC(=O)[C@H](CCCCN)NC(=O)[C@H](CCC(N)=O)NC(=O)[C@H](C)NC(=O)[C@@H](NC(=O)[C@H](CCCCN)NC(=O)[C@H](CC(=O)O)NC(=O)[C@H](CC(C)C)NC(=O)C(C)(C)NC(=O)[C@@H](NC(=O)[C@H](CO)NC(=O)[C@H](Cc1ccc(O)cc1)NC(=O)[C@H](CC(=O)O)NC(=O)[C@H](CO)NC(=O)[C@@H](NC(=O)[C@H](Cc1ccccc1)NC(=O)[C@@H](NC(=O)CNC(=O)[C@H](CCC(=O)O)NC(=O)C(C)(C)NC(=O)[C@@H](N)Cc1ccc(O)cc1)[C@@H](C)O)[C@@H](C)O)[C@@H](C)CC)[C@@H](C)CC)C(C)C)C(=O)N[C@@H](C)C(=O)NCC(=O)NCC(=O)N1CCC[C@H]1C(=O)N[C@@H](CO)C(=O)N[C@@H](CO)C(=O)NCC(=O)N[C@@H](C)C(=O)N1CCC[C@H]1C(=O)N1CCC[C@H]1C(=O)N1CCC[C@H]1C(=O)N[C@@H](CSC1CC(=O)N(CCNC(=O)CCCCC[N+]2=C(C=CC=CC=C3N(C)c4ccccc4C3(C)C)C(C)(C)c3ccccc32)C1=O)C(N)=O (stereo partly shown) [daLUXendin660] (H-Y[Aib]EGTFTSDYSI[Aib]LDKIAQKAFVQWLIAGGPSSGAPPPC(X1)-NH2)
Manders' R [1, 3]: 0.82 | Pearson's [1, 3]: 0.663 | Manders' R [1, 4]: 0.763 | Pearson's [1, 4]: 0.555 | Manders' R [1, 5]: 0.866 | Pearson's [1, 5]: 0.756 | Manders' R [1, 6]: 0.82 | Pearson's [1, 6]: 0.61 | Manders' R [1, 7]: 0.849 | Pearson's [1, 7]: 0.778 | Manders' R [1, 8]: 0.803 | Pearson's [1, 8]: 0.595 | Manders' R [1, 9]: 0.811 | Pearson's [1, 9]: 0.656 | Manders' R [1, 10]: 0.83 | Pearson's [1, 10]: 0.66 | Manders' R [1, 11]: 0.861 | Pearson's [1, 11]: 0.826 | Manders' R [1, 12]: 0.847 | Pearson's [1, 12]: 0.812 | Manders' R [1, 13]: 0.799 | Pearson's [1, 13]: 0.723 | Manders' R [1, 14]: 0.766 | Pearson's [1, 14]: 0.713 | Manders' R [1, 15]: 0.8 | Pearson's [1, 15]: 0.745 | Manders' R [1, 16]: 0.809 | Pearson's [1, 16]: 0.769 | Manders' R [1, 17]: 0.825 | Pearson's [1, 17]: 0.795 | Manders' R [1, 18]: 0.894 | Pearson's [1, 18]: 0.914 | Manders' R [1, 19]: 0.9 | Pearson's [1, 19]: 0.838 | Manders' R [1, 20]: 0.901 | Pearson's [1, 20]: 0.809 | Manders' R [1, 21]: 0.886 | Pearson's [1, 21]: 0.756 | Manders' R [1, 22]: 0.894 | Pearson's [1, 22]: 0.818 | Manders' R [1, 23]: 0.899 | Pearson's [1, 23]: 0.824 | Manders' R [1, 24]: 0.894 | Pearson's [1, 24]: 0.796 | Manders' R [1, 25]: 0.901 | Pearson's [1, 25]: 0.822 | Manders' R [1, 26]: 0.878 | Pearson's [1, 26]: 0.769 | Manders' R [1, 27]: 0.862 | Pearson's [1, 27]: 0.834 | Manders' R [1, 28]: 0.735 | Pearson's [1, 28]: 0.645 | Manders' R [1, 29]: 0.775 | Pearson's [1, 29]: 0.722 | Manders' R [1, 30]: 0.833 | Pearson's [1, 30]: 0.821 | Manders' R [1, 31]: 0.823 | Pearson's [1, 31]: 0.764 | Manders' R [1, 32]: 0.748 | Pearson's [1, 32]: 0.736 | Manders' R [1, 33]: 0.968 | Pearson's [1, 33]: 0.975 | Manders' R [1, 34]: 0.784 | Pearson's [1, 34]: 0.683 | corrected total cell fluorescence, α cells ([2]; GCG+ cells): 2.30 × 10^5 ± 1.59 × 10^5 AU | corrected total cell fluorescence, β cells ([2]; INS+ cells): 3.60 × 10^5 ± 2.58 × 10^5 AU | corrected total cell fluorescence, δ cells ([2]; SST+ cells): 2.16 × 10^5 ± 1.46 × 10^5 AU
